Results from paper PMC6982127, “GTP Binding Is Necessary for the Activation of a Toxic Mutant Isoform of the Essential GTPase ObgE” (International Journal of Molecular Sciences, 2019).
Read-outs that look alike come from different tables or passages of the source.

Tests used:
Assay in all cases: isothermal titration calorimetry
Type in all cases: binding
ObgE [1] = biological target: T1, ObgE (Escherichia coli, UniProt P42641, H234R)
T1 construct: full-length ObgE, N-terminal His6 tag (pET28a-obgE), expressed in E. coli BL21(DE3) pLysS, Ni-NTA and size exclusion, made nucleotide-free by alkaline phosphatase
T1 sequence (P42641 whole entry H234R): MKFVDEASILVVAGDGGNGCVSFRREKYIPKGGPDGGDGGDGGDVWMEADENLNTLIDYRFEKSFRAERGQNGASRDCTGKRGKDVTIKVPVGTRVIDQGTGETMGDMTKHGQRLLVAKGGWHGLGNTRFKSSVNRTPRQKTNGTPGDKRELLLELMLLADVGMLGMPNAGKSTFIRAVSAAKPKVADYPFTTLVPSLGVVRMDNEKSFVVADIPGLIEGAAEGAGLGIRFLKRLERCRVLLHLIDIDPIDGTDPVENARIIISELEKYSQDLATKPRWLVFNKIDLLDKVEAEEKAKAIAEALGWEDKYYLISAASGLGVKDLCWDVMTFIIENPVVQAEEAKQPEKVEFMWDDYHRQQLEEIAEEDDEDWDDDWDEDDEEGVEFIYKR
Text: (§1) isothermal titration calorimetry on ObgE

ObgE [2] = biological target: T2, ObgE (Escherichia coli, UniProt P42641, E265K)
T2 construct: full-length ObgE, N-terminal His6 tag (pET28a-obgE), expressed in E. coli BL21(DE3) pLysS, Ni-NTA and size exclusion, made nucleotide-free by alkaline phosphatase
T2 sequence (P42641 whole entry E265K): as the sequence (P42641 whole entry H234R) above, with R234H, E265K counted along it
Text: as §1

ObgE [3] = biological target: T3, ObgE (Escherichia coli, UniProt P42641, DEL153-156)
T3 construct: full-length ObgE, N-terminal His6 tag (pET28a-obgE), expressed in E. coli BL21(DE3) pLysS, Ni-NTA and size exclusion, made nucleotide-free by alkaline phosphatase
T3 sequence (P42641 with tags, fused parts or gaps DEL153-156): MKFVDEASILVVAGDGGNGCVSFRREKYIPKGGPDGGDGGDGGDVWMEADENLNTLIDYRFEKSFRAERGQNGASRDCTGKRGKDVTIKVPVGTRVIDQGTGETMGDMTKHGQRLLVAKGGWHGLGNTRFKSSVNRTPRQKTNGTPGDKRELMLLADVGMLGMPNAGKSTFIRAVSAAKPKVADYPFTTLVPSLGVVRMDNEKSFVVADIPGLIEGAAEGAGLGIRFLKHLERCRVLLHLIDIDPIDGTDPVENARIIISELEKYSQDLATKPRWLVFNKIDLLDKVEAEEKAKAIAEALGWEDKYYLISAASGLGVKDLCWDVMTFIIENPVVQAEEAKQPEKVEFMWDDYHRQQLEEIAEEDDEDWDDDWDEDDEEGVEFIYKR
Text: as §1

ObgE [4] = biological target: T4, ObgE (Escherichia coli, UniProt P42641, T174I)
T4 construct: full-length ObgE, N-terminal His6 tag (pET28a-obgE), expressed in E. coli BL21(DE3) pLysS, Ni-NTA and size exclusion, made nucleotide-free by alkaline phosphatase
T4 sequence (P42641 whole entry T174I): as the sequence (P42641 whole entry H234R) above, with T174I, R234H counted along it
Text: as §1

[5] = read-out: Equilibrium Dissociation Constants / KD(GTPγS)
[6] = read-out: Equilibrium Dissociation Constants / KD(ppGpp)
[7] = read-out: Equilibrium Dissociation Constants / KD(GDP)

Nc1nc2c(ncn2[C@@H]2O[C@H](COP(=O)(O)OP(=O)(O)OP(O)(O)=S)[C@@H](O)[C@H]2O)c(=O)[nH]1 [GTPγS]
Kd (ObgE [1]; [5]): 3700 ± 500 nM | Kd (ObgE [2]; [5]): 5700 ± 800 nM | Kd (ObgE [3]; [5]): 3400 ± 500 nM | Kd (ObgE [4]; [5]): 160000 ± 11000 nM

Nc1nc2c(ncn2[C@@H]2O[C@H](COP(=O)(O)OP(=O)(O)O)[C@@H](OP(=O)(O)OP(=O)(O)O)[C@H]2O)c(=O)[nH]1 [ppGpp]
Kd (ObgE [1]; [6]): 600 ± 60 nM | Kd (ObgE [2]; [6]): 310 ± 30 nM | Kd (ObgE [3]; [6]): 640 ± 60 nM | Kd (ObgE [4]; [6]): 81000 ± 3000 nM

Nc1nc2c(ncn2[C@@H]2O[C@H](COP(=O)(O)OP(=O)(O)O)[C@@H](O)[C@H]2O)c(=O)[nH]1 [GDP]
Kd (ObgE [1]; [7]): 430 ± 50 nM | Kd (ObgE [2]; [7]): 250 ± 30 nM | Kd (ObgE [3]; [7]): 600 ± 50 nM | Kd (ObgE [4]; [7]): 115000 ± 2000 nM
